Test results: ChEMBL document CHEMBL1157099, “Proline-containing cyclopeptides from the marine sponge Phakellia fusca” (J Nat Prod, 2010)
Activity calls are given as the source filed them. The rule behind the calls is not given here. Residues, ends and D or L forms follow the SMILES beside them.

Tests used:
[1] = system: P388; test: Cytotoxicity against mouse P388 cells after 48 hrs by MTT assay; type: functional, cell-based; settings: for IC50: P388, 48 h
[2] = system: Bel-7402; test: Cytotoxicity against human Bel7402 cells after 48 hrs by MTT assay; type: functional, cell-based

| Structure (SMILES) | IC50 [1] [µM] | IC50 ([2]; Bel-7402, 48 h) [µM] | Activity [2] | Activity [1] |
| --- | --- | --- | --- | --- |
| CC[C@H](C)[C@@H]1NC(=O)[C@H](Cc2c[nH]c3ccccc23)NC(=O)[C@@H]2CCCN2C(=O)[C@H](CC(C)C)NC(=O)[C@@H]2CCCN2C(=O)[C@H]([C@@H](C)O)NC(=O)[C@H](CC(C)C)NC(=O)[C@@H]2CCCN2C1=O [PHAKELLISTATIN 15] (cyclo(IPLTPLPW)) | 8.5 | – | – | – |
| CC(C)[C@@H]1NC(=O)[C@H](C)NC(=O)[C@H](CCCNC(=N)N)NC(=O)[C@H](CO)NC(=O)[C@H](CC(=O)O)NC(=O)[C@H](Cc2ccccc2)NC(=O)[C@@H]2CCCN2C(=O)[C@H](Cc2ccc(O)cc2)NC(=O)[C@H]([C@@H](C)O)NC1=O [PHAKELLISTATIN 16] (cyclo(AVTYPFDSR)) | 5.4 | 14.3 | – | – |
| CC[C@H](C)[C@@H]1NC(=O)[C@H](CC(C)C)NC(=O)[C@@H]2CCCN2C(=O)[C@H](C(C)C)NC(=O)[C@H](Cc2c[nH]c3ccccc23)NC(=O)[C@@H]2CCCN2C(=O)[C@H]([C@@H](C)CC)NC(=O)[C@@H]2CCCN2C1=O (cyclo(IPIPWVPL)) | – | – | inactive | inactive |
